Experimental data reported in ChEMBL document CHEMBL3286387, “α-Tetralone derivatives as inhibitors of monoamine oxidase” (Bioorg Med Chem Lett, 2014).

Assays:
[1] = biological target: T1, Amine oxidase [flavin-containing] B (Homo sapiens, UniProt P27338); test: Inhibition of recombinant human MAO-B using kynuramine as substrate assessed as 4-hydroxyquinoline production after 30 mins by fluorescence spectrophotometry analysis
T1 sequence (P27338 whole entry): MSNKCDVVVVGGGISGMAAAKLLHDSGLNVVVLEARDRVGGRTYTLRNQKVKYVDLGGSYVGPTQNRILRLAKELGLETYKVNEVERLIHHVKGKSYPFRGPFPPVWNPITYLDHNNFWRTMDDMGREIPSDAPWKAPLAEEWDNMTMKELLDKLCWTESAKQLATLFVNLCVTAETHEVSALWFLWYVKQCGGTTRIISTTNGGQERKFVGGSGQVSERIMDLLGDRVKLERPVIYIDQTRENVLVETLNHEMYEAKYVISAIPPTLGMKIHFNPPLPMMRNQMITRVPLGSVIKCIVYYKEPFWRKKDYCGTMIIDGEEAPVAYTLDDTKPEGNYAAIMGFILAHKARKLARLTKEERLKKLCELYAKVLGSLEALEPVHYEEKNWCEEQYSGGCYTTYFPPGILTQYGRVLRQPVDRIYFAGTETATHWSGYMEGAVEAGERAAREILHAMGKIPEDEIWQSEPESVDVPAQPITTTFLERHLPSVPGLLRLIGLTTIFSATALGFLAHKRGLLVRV

[2] = biological target: T2, Amine oxidase [flavin-containing] A (Homo sapiens, UniProt P21397); test: Inhibition of recombinant human MAO-A using kynuramine as substrate assessed as 4-hydroxyquinoline production after 30 mins by fluorescence spectrophotometry analysis
T2 sequence (P21397 whole entry): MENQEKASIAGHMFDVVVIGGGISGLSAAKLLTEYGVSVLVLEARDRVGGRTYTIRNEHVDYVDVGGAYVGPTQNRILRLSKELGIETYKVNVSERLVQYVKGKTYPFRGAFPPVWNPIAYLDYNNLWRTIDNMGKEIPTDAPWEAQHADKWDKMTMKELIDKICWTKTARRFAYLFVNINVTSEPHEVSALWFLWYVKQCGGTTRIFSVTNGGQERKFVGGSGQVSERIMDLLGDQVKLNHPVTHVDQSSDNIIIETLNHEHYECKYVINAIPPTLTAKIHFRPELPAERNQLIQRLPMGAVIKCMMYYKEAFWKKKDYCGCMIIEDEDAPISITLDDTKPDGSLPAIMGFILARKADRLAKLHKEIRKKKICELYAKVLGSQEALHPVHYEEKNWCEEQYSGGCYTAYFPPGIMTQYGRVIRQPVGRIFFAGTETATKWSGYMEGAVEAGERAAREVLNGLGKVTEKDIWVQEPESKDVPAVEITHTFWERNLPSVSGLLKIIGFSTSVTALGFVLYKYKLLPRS

Homo sapiens = organism: Homo sapiens; test: Selectivity index, ratio of IC50 for recombinant human MAO-A to IC50 for recombinant human MAO-B
[3] = biological target: T2, Amine oxidase [flavin-containing] A; test: Reversible inhibition of recombinant human MAO-A using kynuramine as substrate assessed as enzyme residual activity at 4 times IC50 incubated for 15 mins measured after 24 hrs of dialysis by fluorescence spectrophotometry analysis relative to control
[4] = biological target: T1, Amine oxidase [flavin-containing] B; test: Competitive inhibition of recombinant human MAO-B using kynuramine as substrate by Lineweaver-Burk plot analysis
[5] = biological target: T1, Amine oxidase [flavin-containing] B; test: Reversible inhibition of recombinant human MAO-B using kynuramine as substrate assessed as enzyme residual activity at 4 times IC50 incubated for 15 mins measured after 24 hrs by fluorescence spectrophotometry analysis relative to control
[6] = biological target: T2, Amine oxidase [flavin-containing] A; test: Competitive inhibition of recombinant human MAO-A using kynuramine as substrate by Lineweaver-Burk plot analysis
[7] = biological target: T2, Amine oxidase [flavin-containing] A; test: Reversible inhibition of recombinant human MAO-A using kynuramine as substrate assessed as enzyme residual activity at 4 times IC50 incubated for 15 mins measured after 24 hrs by fluorescence spectrophotometry analysis relative to control

| Compound | IC50 [1] | IC50 [2] | Ratio IC50 (Homo sapiens) | Ki [4] | Activity [5] | Ki [6] | Activity [7] | Activity [3] |
| --- | --- | --- | --- | --- | --- | --- | --- | --- |
| O=C1CCCc2cc(OCCc3ccccc3)ccc21 | 0.033 µM | 1.32 µM | 40 | – | – | – | – | – |
| O=C1CCCc2cc(OCc3ccc(C(F)(F)F)cc3)ccc21 | 0.006 µM | 0.547 µM | 91 | – | – | – | – | – |
| O=C1CCCc2cc(OCCCc3ccccc3)ccc21 | 0.032 µM | 1.16 µM | 36 | – | – | – | – | – |
| O=C1CCCc2cc(OCc3cccc(F)c3)ccc21 | 0.017 µM | 0.392 µM | 23 | – | – | – | – | – |
| C#CCN(C)Cc1ccccc1 [PARGYLINE] | – | – | – | – | – | – | – | 1.6% |
| O=C1CCCc2cc(OCc3cccc(I)c3)ccc21 | 0.0045 µM | 1.29 µM | 287 | 0.0071 µM | 23% | – | – | – |
| O=C1CCCc2cc(OCc3ccc(I)cc3)ccc21 | 0.0065 µM | 2.25 µM | 346 | – | – | – | – | – |
| O=C1CCCc2ccccc21 | 18.6 µM | 14.8 µM | 0.8 | – | – | – | – | – |
| O=C1CCCc2cc(OCc3ccccc3)ccc21 | 0.063 µM | 0.792 µM | 13 | – | – | – | – | – |
| O=C1CCCc2cc(O)ccc21 | 66.4 µM | 43.8 µM | 0.7 | – | – | – | – | – |
| N#Cc1ccc(COc2ccc3c(c2)CCCC3=O)cc1 | 0.011 µM | 0.656 µM | 60 | – | – | – | – | – |
| Cc1ccc(COc2ccc3c(c2)CCCC3=O)cc1 | 0.011 µM | 2.09 µM | 190 | – | – | – | – | – |

More lines, in order of falling IC50 [2], values ahead:

| IC50 [1] | IC50 [2] | Ratio IC50 (Homo sapiens) | Ki [4] | Activity [5] | Ki [6] | Activity [7] | Compound | Activity [3] |
| --- | --- | --- | --- | --- | --- | --- | --- | --- |
| 0.009 µM | 0.311 µM | 35 | – | – | – | – | O=C1CCCc2cc(OCc3ccc(Br)cc3)ccc21 | – |
| – | 0.266 µM | – | – | – | – | – | O=C1CCCc2cc(OCc3ccc(F)cc3)ccc21 | – |
| – | 0.238 µM | – | – | – | – | – | O=C1CCCc2cc(OCc3ccc(Cl)cc3)ccc21 | – |
| 0.009 µM | 0.212 µM | 24 | – | – | – | – | O=C1CCCc2cc(OCc3cccc(Br)c3)ccc21 | – |
| 0.015 µM | 0.207 µM | 14 | – | – | – | – | O=C1CCCc2cc(OCc3cccc(Cl)c3)ccc21 | – |
| 0.078 µM | 0.024 µM | 0.3 | – | – | 0.025 µM | 44% | N#Cc1cccc(COc2ccc3c(c2)CCCC3=O)c1 | 108% |
